Measurements: patent US20250136578A1 (Kolm Therapeutics Inc., priority 2023, published 2025)
Read-outs that look alike come from different tables or passages of the source.

Assays:
[1] = test system: VCaP cells; assay: VCaP growth inhibition assay (CTG); type: cell-based; settings: Homo sapiens, 216 h, 30 pM R1881, 9 days
Description: VCaP cells (ATCC Cat #CRL-2876) are plated at 1×10^4 cells per well of a white plastic 96-well cluster plate (Thermo Scientific Nunc Cat #165306) in 100 uL phenol red-free DMEM (Gibco Cat #21063-029) media with 5% CSS (Omega Scientific Cat #FB-04). Cluster plates are returned to the incubator (37*C/5% CO2) for 72 hours prior to treatment. Just prior to treatment, 100 uL of phenol red-free DMEM/5% CSS and 60 pM R1881 (Sigma Cat #R0908-10 mg) was added to each well of the cluster plates (Final R1881 concentration=30 pM). Compounds (200X) were added to each well in a volume of 1 uL, with serial dilutions (1:5) from 20 uM to 2 pM (final concentrations in well are 100 nM to 10 fM). Cluster plates are returned to the incubator for 9 days.
After the 9-day treatment period, media was removed from the cluster plates by inversion and 100 uL room temperature CTG reagent (Promega Cat #G7573) is added to each well. The cluster plates are placed on a shaker and incubated at room temperature for 20 minutes. Following this shaking/incubation, cluster plates are read on a luminometer (BMG ClarioStar). IC50 values are obtained by graphing the RLU data vs. compound concentration with nonlinear regression 4-parameter logistic curves (GraphPad Prism).

[2] = target: AR / CBP ternary complex (Homo sapiens, UniProt P10275+Q92793); assay: Ternary complex formation assay (sandwich ELISA, AR capture, CBP antibody detection) in VCaP cell lysates; type: cell-based
Summary of the method: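 VCaP cells in 5% charcoal-stripped FBS were cultured ≥3 days and then given bifunctional compound for 1.5 h. Lysates went onto AR-antibody-coated plates. Bound CBP (or p300) was detected with a rabbit antibody plus HRP anti-rabbit, using QuantaRed chemifluorescence (ex 570/em 585) read immediately, at 5 min and at 15 min.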

[3] = treated 1.5 hours, rabbit CBP or p300 antibody detection, average, read-out: Average Ternary Complex
[4] = read-out: Average Ternary Complex, treated 1.5 hours, rabbit CBP or p300 antibody detection

Chain of AR / CBP ternary complex (P10275 whole entry): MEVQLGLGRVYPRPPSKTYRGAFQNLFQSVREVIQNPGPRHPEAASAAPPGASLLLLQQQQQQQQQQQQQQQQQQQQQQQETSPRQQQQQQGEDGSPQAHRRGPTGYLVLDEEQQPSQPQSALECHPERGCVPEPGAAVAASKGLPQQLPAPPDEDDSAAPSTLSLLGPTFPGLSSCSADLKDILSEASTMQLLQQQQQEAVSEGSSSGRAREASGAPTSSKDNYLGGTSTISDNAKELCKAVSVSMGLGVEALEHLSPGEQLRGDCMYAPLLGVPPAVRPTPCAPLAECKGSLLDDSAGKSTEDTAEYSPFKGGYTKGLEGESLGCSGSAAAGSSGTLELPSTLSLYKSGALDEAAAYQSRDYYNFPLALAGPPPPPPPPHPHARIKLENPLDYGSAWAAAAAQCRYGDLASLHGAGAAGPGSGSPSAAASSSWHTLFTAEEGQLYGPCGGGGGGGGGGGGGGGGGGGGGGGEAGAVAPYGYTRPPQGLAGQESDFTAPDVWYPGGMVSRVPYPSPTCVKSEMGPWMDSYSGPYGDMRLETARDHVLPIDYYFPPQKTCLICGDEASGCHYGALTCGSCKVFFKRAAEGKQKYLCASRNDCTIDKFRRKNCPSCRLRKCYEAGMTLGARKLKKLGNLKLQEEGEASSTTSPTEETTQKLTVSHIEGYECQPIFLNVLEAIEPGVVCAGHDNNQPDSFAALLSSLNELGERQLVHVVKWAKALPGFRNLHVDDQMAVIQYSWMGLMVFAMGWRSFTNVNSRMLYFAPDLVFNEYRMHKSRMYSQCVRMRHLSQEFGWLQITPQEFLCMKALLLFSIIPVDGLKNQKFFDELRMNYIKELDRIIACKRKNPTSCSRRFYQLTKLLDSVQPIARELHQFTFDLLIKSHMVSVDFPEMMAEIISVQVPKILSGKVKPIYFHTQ
Chain of AR / CBP ternary complex (Q92793 2-2442): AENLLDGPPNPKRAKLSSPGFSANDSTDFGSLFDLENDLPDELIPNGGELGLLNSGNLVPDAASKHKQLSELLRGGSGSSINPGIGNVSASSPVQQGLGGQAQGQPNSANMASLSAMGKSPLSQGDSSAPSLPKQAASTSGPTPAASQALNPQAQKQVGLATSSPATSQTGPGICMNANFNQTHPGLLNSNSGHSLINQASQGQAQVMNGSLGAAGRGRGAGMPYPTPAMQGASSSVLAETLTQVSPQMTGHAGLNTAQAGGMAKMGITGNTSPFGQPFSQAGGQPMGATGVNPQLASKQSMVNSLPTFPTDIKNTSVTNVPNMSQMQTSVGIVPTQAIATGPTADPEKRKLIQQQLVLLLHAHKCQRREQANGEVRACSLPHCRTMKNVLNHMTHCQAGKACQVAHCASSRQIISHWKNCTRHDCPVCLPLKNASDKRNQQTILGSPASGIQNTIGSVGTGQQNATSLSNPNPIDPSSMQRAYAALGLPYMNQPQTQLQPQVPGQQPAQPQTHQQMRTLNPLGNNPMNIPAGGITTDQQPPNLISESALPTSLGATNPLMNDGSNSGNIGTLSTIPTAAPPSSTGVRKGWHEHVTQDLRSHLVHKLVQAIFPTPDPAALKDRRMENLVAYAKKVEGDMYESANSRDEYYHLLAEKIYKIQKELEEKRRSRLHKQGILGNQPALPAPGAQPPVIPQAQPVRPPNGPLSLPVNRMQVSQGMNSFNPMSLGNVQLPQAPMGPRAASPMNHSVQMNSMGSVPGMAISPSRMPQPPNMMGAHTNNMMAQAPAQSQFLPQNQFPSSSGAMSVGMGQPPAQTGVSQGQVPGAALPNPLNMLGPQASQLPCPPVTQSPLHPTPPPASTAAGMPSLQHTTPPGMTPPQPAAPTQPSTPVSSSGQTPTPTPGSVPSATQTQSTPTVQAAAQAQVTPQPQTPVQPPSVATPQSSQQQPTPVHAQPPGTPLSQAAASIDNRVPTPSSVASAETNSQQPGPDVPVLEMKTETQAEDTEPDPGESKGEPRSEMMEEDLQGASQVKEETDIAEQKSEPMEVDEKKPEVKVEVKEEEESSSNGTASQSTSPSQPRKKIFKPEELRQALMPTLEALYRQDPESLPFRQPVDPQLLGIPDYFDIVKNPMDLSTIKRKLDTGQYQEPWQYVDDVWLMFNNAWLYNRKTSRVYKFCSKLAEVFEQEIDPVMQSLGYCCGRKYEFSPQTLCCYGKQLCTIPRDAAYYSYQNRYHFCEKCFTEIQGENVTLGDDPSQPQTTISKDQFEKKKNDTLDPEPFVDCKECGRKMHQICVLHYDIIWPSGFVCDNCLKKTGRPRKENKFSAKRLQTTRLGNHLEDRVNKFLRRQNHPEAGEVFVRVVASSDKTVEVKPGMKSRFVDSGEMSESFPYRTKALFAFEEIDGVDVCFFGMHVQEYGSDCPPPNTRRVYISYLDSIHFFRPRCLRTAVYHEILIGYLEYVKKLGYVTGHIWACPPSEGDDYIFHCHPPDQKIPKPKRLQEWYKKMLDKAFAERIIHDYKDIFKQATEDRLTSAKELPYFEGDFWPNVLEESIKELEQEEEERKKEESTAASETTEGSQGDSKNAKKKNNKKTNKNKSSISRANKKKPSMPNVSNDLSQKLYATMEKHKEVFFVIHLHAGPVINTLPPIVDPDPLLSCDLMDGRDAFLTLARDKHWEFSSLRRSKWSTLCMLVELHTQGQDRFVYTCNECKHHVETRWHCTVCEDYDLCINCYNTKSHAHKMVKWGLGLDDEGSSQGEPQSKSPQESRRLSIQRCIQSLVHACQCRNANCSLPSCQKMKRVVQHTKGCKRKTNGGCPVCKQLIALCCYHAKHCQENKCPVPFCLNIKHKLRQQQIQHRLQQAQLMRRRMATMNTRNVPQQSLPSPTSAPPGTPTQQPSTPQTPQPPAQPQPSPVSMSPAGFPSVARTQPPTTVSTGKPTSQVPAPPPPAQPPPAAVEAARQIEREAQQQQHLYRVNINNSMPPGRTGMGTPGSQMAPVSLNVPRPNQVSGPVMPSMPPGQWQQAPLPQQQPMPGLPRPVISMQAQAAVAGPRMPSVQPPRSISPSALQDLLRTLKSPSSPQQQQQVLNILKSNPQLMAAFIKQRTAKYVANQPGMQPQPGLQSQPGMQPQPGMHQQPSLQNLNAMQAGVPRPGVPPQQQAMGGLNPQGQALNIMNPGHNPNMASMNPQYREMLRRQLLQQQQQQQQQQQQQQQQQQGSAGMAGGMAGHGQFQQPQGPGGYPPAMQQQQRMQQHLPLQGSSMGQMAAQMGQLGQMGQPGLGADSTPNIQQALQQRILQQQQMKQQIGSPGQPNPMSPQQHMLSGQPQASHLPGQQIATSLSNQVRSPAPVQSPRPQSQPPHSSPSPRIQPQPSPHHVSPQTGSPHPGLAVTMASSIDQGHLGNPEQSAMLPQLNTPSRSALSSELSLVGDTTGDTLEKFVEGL

Compound	IC50 [1]	EC50 [2, 3]	EC50 [2, 4]
CC(=O)N1CCc2c(c(-c3cccc4cc(-c5cnn(CCC6CCN(c7ccc(C(=O)N[C@H]8CC[C@H](Oc9ccc(C#N)c(Cl)c9)CC8)nn7)CC6)c5)ncc34)nn2C)C1 [Compound 8, 6-[4-[2-[4-[8-(5-acetyl-1-methyl-6,7-dihydro-4H-pyrazolo[4,3-c]pyridin-3-yl)-3-isoquinolyl]pyrazol-1-yl]ethyl]-1-piperidyl]-N-[4-(3-chloro-4-cyano-phenoxy)cyclohexyl]pyridazine-3-carboxamide]	≤ 0.1 nM	< 1 nM	
CC(=O)N1CCc2c(c(N3CCCc4cc(-c5cnn(C)c5)c(C(F)F)cc43)nn2C2CCN(C(=O)COC3CCN(c4ccc(C(=O)N[C@H]5CC[C@H](N(C)c6ccc(C#N)c(Cl)c6)CC5)cc4)CC3)CC2)C1 [Compound 12, 4-[4-[2-[4-[5-acetyl-3-[7-(difluoromethyl)-6-(1-methylpyrazol-4-yl)-3,4-dihydro-2H-quinolin-1-yl]-6,7-dihydro-4H-pyrazolo[4,3-c]pyridin-1-yl]-1-piperidyl]-2-oxo-ethoxy]-1-piperidyl]-N-[4-(3-chloro-4-cyano-N-methyl-anilino)cyclohexyl]benzamide]	≤ 0.1 nM		< 1 nM
CC(=O)N1CCc2c(c(N3CCCc4cc(-c5cnn(C)c5)c(C(F)F)cc43)nn2C2CCN(C(=O)CC3CCN(c4ccc(C(=O)N[C@H]5CC[C@H](N(C)c6ccc(C#N)c(Cl)c6)CC5)cc4)CC3)CC2)C1 [Compound 13, 4-[4-[2-[4-[5-acetyl-3-[7-(difluoromethyl)-6-(1-methylpyrazol-4-yl)-3,4-dihydro-2H-quinolin-1-yl]-6,7-dihydro-4H-pyrazolo[4,3-c]pyridin-1-yl]-1-piperidyl]-2-oxo-ethyl]-1-piperidyl]-N-[4-(3-chloro-4-cyano-N-methyl-anilino)cyclohexyl]benzamide]	0.1 to 1 nM		< 1 nM
CC(=O)N1CCc2c(c(N3CCCc4cc(-c5cnn(C)c5)c(C(F)F)cc43)nn2C2CCN(C(=O)CC3CCN(c4ccc(C(=O)N[C@H]5CC[C@H](Oc6ccc(C#N)c(Cl)c6)CC5)nn4)CC3)CC2)C1 [Compound 14, 6-[4-[2-[4-[5-acetyl-3-[7-(difluoromethyl)-6-(1-methylpyrazol-4-yl)-3,4-dihydro-2H-quinolin-1-yl]-6,7-dihydro-4H-pyrazolo[4,3-c]pyridin-1-yl]-1-piperidyl]-2-oxo-ethyl]-1-piperidyl]-N-[4-(3-chloro-4-cyano-phenoxy)cyclohexyl]pyridazine-3-carboxamide]	≤ 0.1 nM	< 1 nM	
CC(=O)N1CCc2c(c(N3CCCc4cc(-c5cnn(C)c5)c(C(F)F)cc43)nn2C2CCN(CC3CCN(c4ccc(C(=O)N[C@H]5CC[C@H](Oc6ccc(C#N)c(Cl)c6)CC5)nn4)CC3)CC2)C1 [Compound 16, 6-[4-[[4-[5-acetyl-3-[7-(difluoromethyl)-6-(1-methylpyrazol-4-yl)-3,4-dihydro-2H-quinolin-1-yl]-6,7-dihydro-4H-pyrazolo[4,3-c]pyridin-1-yl]-1-piperidyl]methyl]-1-piperidyl]-N-[4-(3-chloro-4-cyano-phenoxy)cyclohexyl]pyridazine-3-carboxamide]	≤ 0.1 nM	< 1 nM	
CC(=O)N1CCc2c(c(N3CCCc4cc(-c5cnn(C)c5)c(C(F)F)cc43)nn2C2CCN(CC3CCN(c4ccc(C(=O)N[C@H]5CC[C@H](Oc6ccc(C#N)c(Cl)c6)CC5)cn4)CC3)CC2)C1 [Compound 18, 6-[4-[[4-[5-acetyl-3-[7-(difluoromethyl)-6-(1-methylpyrazol-4-yl)-3,4-dihydro-2H-quinolin-1-yl]-6,7-dihydro-4H-pyrazolo[4,3-c]pyridin-1-yl]-1-piperidyl]methyl]-1-piperidyl]-N-[4-(3-chloro-4-cyano-phenoxy)cyclohexyl]pyridine-3-carboxamide]	≤ 0.1 nM	< 1 nM	
CC(=O)N1CCc2c(c(-c3cccc4cc(-c5ccc(CC6CCN(c7ccc(C(=O)N[C@H]8CC[C@H](Oc9ccc(C#N)c(Cl)c9)CC8)nn7)CC6)nc5)ncc34)nn2C)C1 [Compound 19, 6-[4-[[5-[8-(5-acetyl-1-methyl-6,7-dihydro-4H-pyrazolo[4,3-c]pyridin-3-yl)-3-isoquinolyl]-2-pyridyl]methyl]-1-piperidyl]-N-[4-(3-chloro-4-cyano-phenoxy)cyclohexyl]pyridazine-3-carboxamide]	≤ 0.1 nM	> 100 nM	
CC(=O)N1CCc2c(c(-c3cccc4cc(-c5ccc(CCC6CCN(c7ccc(C(=O)N[C@H]8CC[C@H](Oc9ccc(C#N)c(Cl)c9)CC8)nn7)CC6)nc5)ncc34)nn2C)C1 [Compound 20, 6-[4-[2-[5-[8-(5-acetyl-1-methyl-6,7-dihydro-4H-pyrazolo[4,3-c]pyridin-3-yl)-3-isoquinolyl]-2-pyridyl]ethyl]-1-piperidyl]-N-[4-(3-chloro-4-cyano-phenoxy)cyclohexyl]pyridazine-3-carboxamide]	≤ 0.1 nM	< 1 nM	
CC(=O)N1CCc2c(c(-c3cccc4cc(-c5ccc(COCC6CCN(c7ccc(C(=O)N[C@H]8CC[C@H](Oc9ccc(C#N)c(Cl)c9)CC8)nn7)CC6)nc5)ncc34)nn2C)C1 [Compound 21, 6-[4-[[5-[8-(5-acetyl-1-methyl-6,7-dihydro-4H-pyrazolo[4,3-c]pyridin-3-yl)-3-isoquinolyl]-2-pyridyl]methoxymethyl]-1-piperidyl]-N-[4-(3-chloro-4-cyano-phenoxy)cyclohexyl]pyridazine-3-carboxamide]	≤ 0.1 nM	< 1 nM	
CC(=O)N1CCc2c(c(-c3cccc4cc(-c5cnn(CC6CCN(c7ccc(C(=O)N[C@H]8CC[C@H](Oc9ccc(C#N)c(Cl)c9)CC8)nn7)CC6)c5)ncc34)nn2C2CCOCC2)C1 [Compound 22, 6-[4-[[4-[8-(5-acetyl-1-tetrahydropyran-4-yl-6,7-dihydro-4H-pyrazolo[4,3-c]pyridin-3-yl)-3-isoquinolyl]pyrazol-1-yl]methyl]-1-piperidyl]-N-[4-(3-chloro-4-cyano-phenoxy)cyclohexyl]pyridazine-3-carboxamide]	≤ 0.1 nM	< 1 nM	
CC(=O)N1CCc2c(c(-c3cccc4cc(-c5ccc(CC6CCN(c7ccc(C(=O)N[C@H]8CC[C@H](Oc9ccc(C#N)c(Cl)c9)CC8)nn7)CC6)nc5)ncc34)nn2C2CCOCC2)C1 [Compound 23, 6-[4-[[5-[8-(5-acetyl-1-tetrahydropyran-4-yl-6,7-dihydro-4H-pyrazolo[4,3-c]pyridin-3-yl)-3-isoquinolyl]-2-pyridyl]methyl]-1-piperidyl]-N-[4-(3-chloro-4-cyano-phenoxy)cyclohexyl]pyridazine-3-carboxamide]	0.1 to 1 nM	< 1 nM	
CC(=O)N1CCc2c(c(-c3cccc4cc(-c5ccc(CCC6CCN(c7ccc(C(=O)N[C@H]8CC[C@H](Oc9ccc(C#N)c(Cl)c9)CC8)nn7)CC6)nc5)ncc34)nn2C2CCOCC2)C1 [Compound 25, 6-[4-[2-[5-[8-(5-acetyl-1-tetrahydropyran-4-yl-6,7-dihydro-4H-pyrazolo[4,3-c]pyridin-3-yl)-3-isoquinolyl]-2-pyridyl]ethyl]-1-piperidyl]-N-[4-(3-chloro-4-cyano-phenoxy)cyclohexyl]pyridazine-3-carboxamide]	≤ 0.1 nM	< 1 nM	
